Source: patent US20040038862A1, “Identification of new therapeutic targets for modulating bile acid synthesis” (priority 2003, published 2004)
Entries after “also recorded” stand apart in the source; their conditions may differ.

Columns and labels:
human SHP-1 promoter = assay: SHP-1 promoter reporter in HepG2 cells transfected with FXR expression plasmid; assay type: cell-based
SHP-1 expression [1] = assay: SHP-1 expression in primary rat hepatocytes (Northern blot); assay type: cell-based; details: 48 hours; GW4064 0.1-10 μM
Experimental: (§1) Primary human hepatocytes and rat hepatocytes (1.5×10^6 cells) were cultured on […]-coated six well plates in serum-free Williams' E medium supplemented with 100 nM dexamethasone, 100 U/ml penicillin G, 100 μg/ml streptomycin, and insulin-transferrin-selenium (ITS-G, Life Technologies, Inc., Gaithersburg, Md.). […] Control cultures received vehicle alone. Cells were cultured for a further 48 hours prior to harvest and total RNA isolated using a commercially available reagent (Trizol, Life Technologies Inc., Gaithersburg, Md.) according to the manufacturer's instructions. Total RNA (10 μg) was resolved on a 1% agarose/2.2 M formaldehyde denaturing gel and transferred to a nylon membrane (Hybond N+, Amersham Pharmacia Biotech Inc., Piscataway, N.J.). Blots were hybridized with ^32p-labeled cDNAs corresponding to human SHP-1, human CYP7A (bases 99 to 1564, GenBank M93133), mouse SHP-1 (bases 30 to 783, GenBank L76567), or rat CYP7A (bases 235 to 460, GenBank J05460). The SHP-1 cDNA used in these experiments encodes the full-length human SHP-1 protein (amino acids 1-260) as described in Seol et al. (1996 Science 272:1336), Subsequently, blots were stripped and reprobed with a radiolabeled -actin cDNA (Clontech, Palo Alto, Calif.).

rodent FXR = target: T1, rodent FXR (Mus musculus, UniProt Q60641); assay: FXR transactivation in transfected CV-1 cells, hsp70 ecdysone receptor response element reporter; assay type: cell-based
T1 construct: expressed in transfected cells; host or cells: CV-1
T1 sequence (Q60641 1-488): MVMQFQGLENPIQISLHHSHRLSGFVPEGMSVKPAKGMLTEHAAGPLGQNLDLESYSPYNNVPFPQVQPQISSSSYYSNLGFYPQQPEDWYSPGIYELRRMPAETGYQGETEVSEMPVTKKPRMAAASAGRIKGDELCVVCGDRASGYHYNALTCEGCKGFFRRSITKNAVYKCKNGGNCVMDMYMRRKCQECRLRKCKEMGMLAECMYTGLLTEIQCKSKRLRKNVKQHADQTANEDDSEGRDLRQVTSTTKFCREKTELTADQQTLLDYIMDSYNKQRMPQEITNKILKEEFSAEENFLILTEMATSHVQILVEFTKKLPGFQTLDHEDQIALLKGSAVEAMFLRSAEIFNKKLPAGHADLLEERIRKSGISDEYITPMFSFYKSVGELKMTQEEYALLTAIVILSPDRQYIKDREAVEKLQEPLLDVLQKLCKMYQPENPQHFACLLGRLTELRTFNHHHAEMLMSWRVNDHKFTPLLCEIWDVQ
Source text: The full-length coding regions for human LRH-1 (GenBank AB019246) and human SHP-1 (GenBank L76571) were amplified by PCR and cloned into pSG5, creating pSG5-hLRH-1 and pSG5-hSHP-1, respectively. A consensus Kozak sequence was created during amplification. […] Underlined residues are those which have been mutated from the wild-type sequence. […] VP16-nuclear receptor chimeras contained the 80-amino acid herpes virus VP16 transactivation domain linked to the nuclear receptor ligand binding domain in a modified pSG5 expression vector.
Transient transfection of CV-1 cells was performed as described previously (Jones, S. A. et al. 2000. Mol. Endocrinol. 14:27-39). Typically, transfection mixes contained 2-5 ng receptor expression vector, 20 ng reporter construct, and 8 ng p -actin-SPAP. The amount of DNA used in each transfection was adjusted to 80 ng with carrier plasmid (pBluescript, Stratagene, La Jolla, Calif.). Cells were maintained for 24 hours in the presence of drug (added as a 1000× stock in dimethyl sulfoxide) in DMEM/F-12 nutrient mixture containing 10% charcoal-stripped, delipidated calf serum. An aliquot of medium was assayed for SPAP activity and the cells lysed prior to determination of luciferase expression. Luciferase activities were normalized to SPAP. […]

rat SHP-1 promoter = assay: SHP-1 promoter reporter in HepG2 cells transfected with FXR expression plasmid; assay type: cell-based
SHP-1 expression [2] = assay: SHP-1 expression in primary human hepatocytes (Northern blot); assay type: cell-based; details: 48 hours; GW4064 0.1-10 μM, chenodeoxycholic acid 1-100 μM
Experimental: Control cultures received vehicle alone. Cells were cultured for a further 48 hours prior to harvest and total RNA isolated using a commercially available reagent (Trizol, Life Technologies Inc., Gaithersburg, Md.) according to the manufacturer's instructions. Total RNA (10 μg) was resolved on a 1% agarose/2.2 M formaldehyde denaturing gel and transferred to a nylon membrane (Hybond N+, Amersham Pharmacia Biotech Inc., Piscataway, N.J.). Blots were hybridized with ^32p-labeled cDNAs corresponding to human SHP-1, human CYP7A (bases 99 to 1564, GenBank M93133), mouse SHP-1 (bases 30 to 783, GenBank L76567), or rat CYP7A (bases 235 to 460, GenBank J05460). The SHP-1 cDNA used in these experiments encodes the full-length human SHP-1 protein (amino acids 1-260) as described in Seol et al. (1996 Science 272:1336), Subsequently, blots were stripped and reprobed with a radiolabeled -actin cDNA (Clontech, Palo Alto, Calif.).

SHP-1 expression [3] = assay: Liver SHP-1 expression in treated rats; assay type: in vivo, rat; details: 30 mg/kg by gavage twice a day for 7 days
Experimental: Direct regulation of SHP-1 by FXR was confirmed in experiments in HepG2 cells transfected with an FXR expression plasmid and reporter plasmids under the control of either the rat or human SHP-1 promoter.
(§2) Male Fisher rats were obtained from Charles River Laboratories Inc. (Raleigh, N.C.) and maintained on a 12 hour light/12 hour dark cycle. Animals were allowed food and chow ad libitum. […] Livers were excised and snap-frozen in liquid nitrogen. Differential gene expression analysis was performed by Curagen Corp. (New Haven, Conn.).

CYP7A expression [4] = assay: Liver CYP7A expression in treated rats; assay type: in vivo, rat; details: 30 mg/kg by gavage twice a day for 7 days
Experimental: This decrease was still measurable despite the fact that the animals had been maintained on a normal light cycle and sacrificed during the daytime when CYP7A levels are known to be quite low.
as §2

CYP7A expression [5] = assay: CYP7A expression in primary human hepatocytes (Northern blot); assay type: cell-based; details: 48 hours; GW4064 0.1-10 μM, chenodeoxycholic acid 1-100 μM
Experimental: as §1

EC50 (rodent FXR)	Compound	reporter activity, human SHP-1 promoter (human SHP-1 promoter)	SHP-1 expression in rat hepatocytes (SHP-1 expression [1])	reporter activity, rat SHP-1 promoter (rat SHP-1 promoter)	SHP-1 expression in human hepatocytes (SHP-1 expression [2])	SHP-1 expression in liver RNA versus vehicle-treated rats (SHP-1 expression [3])	CYP7A expression levels versus vehicle treated rats (CYP7A expression [4])	CYP7A expression in human hepatocytes (CYP7A expression [5])
80 nM	CC(C)c1onc(-c2c(Cl)cccc2Cl)c1COc1ccc(/C=C/c2cccc(C(=O)O)c2)c(Cl)c1 [GW4064]	marked induction of reporter activity	markedly increased SHP-1 expression in a dose-dependent manner	marked induction of reporter activity	markedly increased SHP-1 expression in a dose-dependent manner	six-fold increase	decrease in CYP7A expression levels	decrease CYP7A expression in a dose dependent fashion; also recorded: repressed CYP7A expression at the same concentrations that were required for induction of SHP-1 expression
	C[C@H](CCC(=O)O)[C@H]1CC[C@H]2[C@@H]3[C@H](O)C[C@@H]4C[C@H](O)CC[C@]4(C)[C@H]3CC[C@]12C [chenodeoxycholic acid, reference compound]				much less potent than GW4064			repressed CYP7A expression at the same concentrations that were required for induction of SHP-1 expression
